Results published in patent US9777003B2, “Tricyclic heterocycles as bet protein inhibitors” (Incyte Corporation, priority 2013, dated 2017).

Experiments:
[1] = target: BRD4-BD1 (Homo sapiens (Human), UniProt O60885); assay: BRD4 AlphaScreen assay, BRD4-BD1; assay type: binding; details: biotin-labeled tetra-acetylated histone H4 peptide, 75 min, room temperature, read-out: BRD4 BD-1 enzyme IC50
In short: (§1)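 Displacement of 50 nM biotinylated tetra-acetylated H4 peptide (H4Ac4) from BRD4-BD1 (3.8 nM) or BRD4-BD2 (20 nM) in HEPES pH 7.4, 100 mM NaCl, CHAPS, BSA; 75 min at room temperature. Streptavidin donor/GSH acceptor beads were added for a further 75 min in the dark; IC50 from percent control activity versus log concentration.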

[2] = target: BRD4-BD2 (Homo sapiens (Human), UniProt O60885); assay: BRD4 AlphaScreen assay, BRD4-BD2; assay type: binding; details: biotin-labeled tetra-acetylated histone H4 peptide, 75 min, room temperature, read-out: BRD4 BD-2 enzyme IC50
In short: as §1

Row | IC50 [1] [nM] | IC50 [2] [nM] | SMILES
1 | ≤ 100 | ≤ 100 | Cc1nnc2ccc3c(cc(-c4cn[nH]c4)n3Cc3ccccc3)n12 [Example 63, 6-benzyl-1-methyl-7-(1H-pyrazol-4-yl)-6H-pyrrolo[2,3-e][1,2,4]triazolo[4,3-a]pyridine]
2 | ≤ 100 | ≤ 100 | Cc1nnc2ccc3c(cc(-c4cnn(CC#N)c4)n3Cc3ccccc3)n12 [Example 64, [4-(6-benzyl-1-methyl-6H-pyrrolo[2,3-e][1,2,4]triazolo[4,3-a]pyridin-7-yl)-1H-pyrazol-1-yl]acetonitrile]
3 | ≤ 100 | ≤ 100 | Cc1nnc2ccc3c(cc(-c4ccn(CC#N)n4)n3Cc3ccccc3)n12 [Example 65, [3-(6-benzyl-1-methyl-6H-pyrrolo[2,3-e][1,2,4]triazolo[4,3-a]pyridin-7-yl)-1H-pyrazol-1-yl]acetonitrile]
4 | ≤ 100 | ≤ 100 | Cc1nnc2ccc3c(cc(-c4cscn4)n3Cc3ccccc3)n12 [Example 66, 6-benzyl-1-methyl-7-(1,3-thiazol-4-yl)-6H-pyrrolo[2,3-e][1,2,4]triazolo[4,3-a]pyridine]
5 | ≤ 100 | ≤ 100 | Cc1nnc2ccc3c(cc(-c4nccs4)n3Cc3ccccc3)n12 [Example 67, 6-benzyl-1-methyl-7-(1,3-thiazol-2-yl)-6H-pyrrolo[2,3-e][1,2,4]triazolo[4,3-a]pyridine]
6 | 100 to 1000 | ≤ 100 | Cc1nnc2ccc3c(cc(-c4ccccn4)n3Cc3ccccc3)n12 [Example 68, 6-benzyl-1-methyl-7-pyridin-2-yl-6H-pyrrolo[2,3-e][1,2,4]triazolo[4,3-a]pyridine]
7 | 100 to 1000 | ≤ 100 | Cc1nnc2ccc3c(cc(-c4cncs4)n3Cc3ccccc3)n12 [Example 69, 6-benzyl-1-methyl-7-(1,3-thiazol-5-yl)-6H-pyrrolo[2,3-e][1,2,4]triazolo[4,3-a]pyridine]
8 | ≤ 100 | ≤ 100 | Cc1nnc2ccc3c(cc(-c4cn(C)cn4)n3Cc3ccccc3)n12 [Example 70, 6-benzyl-1-methyl-7-(1-methyl-1H-imidazol-4-yl)-6H-pyrrolo[2,3-e][1,2,4]triazolo[4,3-a]pyridine]
9 | 100 to 1000 | 1000 to 10000 | Cc1nnc2ccc3c(cc(-c4cncn4C)n3Cc3ccccc3)n12 [Example 71, 6-benzyl-1-methyl-7-(1-methyl-1H-imidazol-5-yl)-6H-pyrrolo[2,3-e][1,2,4]triazolo[4,3-a]pyridine]
10 | ≤ 100 | ≤ 100 | Cc1nnc2ccc3c(cc(-c4ccsc4)n3Cc3ccccc3)n12 [Example 72, 6-benzyl-1-methyl-7-(3-thienyl)-6H-pyrrolo[2,3-e][1,2,4]triazolo[4,3-a]pyridine]
11 | 100 to 1000 | ≤ 100 | Cc1nnc2ccc3c(cc(-c4cccs4)n3Cc3ccccc3)n12 [Example 73, 6-benzyl-1-methyl-7-(2-thienyl)-6H-pyrrolo[2,3-e][1,2,4]triazolo[4,3-a]pyridine]
12 | ≤ 100 | ≤ 100 | Cc1nnc2ccc3c(cc(-c4c[nH]cn4)n3Cc3ccccc3)n12 [Example 74, 6-benzyl-7-(1H-imidazol-4-yl)-1-methyl-6H-pyrrolo[2,3-e][1,2,4]triazolo[4,3-a]pyridine]
13 | ≤ 100 | ≤ 100 | Cc1nnc2ccc3c(cc(-c4cn(CCN5CCOCC5)cn4)n3Cc3ccccc3)n12 [Example 75, 6-benzyl-1-methyl-7-[1-(2-morpholin-4-ylethyl)-1H-imidazol-4-yl]-6H-pyrrolo[2,3-e][1,2,4]triazolo[4,3-a]pyridine]
14 | ≤ 100 | ≤ 100 | Cc1nnc2ccc3c(cc(-c4ccn(C)n4)n3Cc3ccccc3)n12 [Example 76, 6-benzyl-1-methyl-7-(1-methyl-1H-pyrazol-3-yl)-6H-pyrrolo[2,3-e][1,2,4]triazolo[4,3-a]pyridine]
15 | ≤ 100 | ≤ 100 | Cc1nnc2ccc3c(cc(-c4ccn(CCN5CCOCC5)n4)n3Cc3ccccc3)n12 [Example 77, 6-benzyl-1-methyl-7-[1-(2-morpholin-4-ylethyl)-1H-pyrazol-3-yl]-6H-pyrrolo[2,3-e][1,2,4]triazolo[4,3-a]pyridine]
16 | ≤ 100 | ≤ 100 | Cc1nnc2ccc3c(cc(-c4ccn(CCC#N)n4)n3Cc3ccccc3)n12 [Example 78, 3-[3-(6-benzyl-1-methyl-6H-pyrrolo[2,3-e][1,2,4]triazolo[4,3-a]pyridin-7-yl)-1H-pyrazol-1-yl]propanenitrile]
17 | ≤ 100 | ≤ 100 | CCn1ccc(-c2cc3c(ccc4nnc(C)n43)n2Cc2ccccc2)n1 [Example 79, 6-benzyl-7-(1-ethyl-1H-pyrazol-3-yl)-1-methyl-6H-pyrrolo[2,3-e][1,2,4]triazolo[4,3-a]pyridine]

Row | IC50 [1] [nM] | IC50 [2] [nM] | SMILES
18 | ≤ 100 | ≤ 100 | CCn1cnc(-c2cc3c(ccc4nnc(C)n43)n2Cc2ccccc2)c1 [Example 80, 6-benzyl-7-(1-ethyl-1H-imidazol-4-yl)-1-methyl-6H-pyrrolo[2,3-e][1,2,4]triazolo[4,3-a]pyridine]
19 | ≤ 100 | ≤ 100 | Cc1nnc2ccc3c(cc(-c4cn(CCC#N)cn4)n3Cc3ccccc3)n12 [Example 81, 3-[4-(6-benzyl-1-methyl-6H-pyrrolo[2,3-e][1,2,4]triazolo[4,3-a]pyridin-7-yl)-1H-imidazol-1-yl]propanenitrile]
20 | ≤ 100 | ≤ 100 | CNC(=O)c1cc2c(ccc3nnc(C)n32)n1Cc1ccccc1 [Example 82, 6-benzyl-N,1-dimethyl-6H-pyrrolo[2,3-e][1,2,4]triazolo[4,3-a]pyridine-7-carboxamide]
21 | ≤ 100 | ≤ 100 | CCCNC(=O)c1cc2c(ccc3nnc(C)n32)n1Cc1ccccc1 [Example 83, 6-benzyl-1-methyl-N-propyl-6H-pyrrolo[2,3-e][1,2,4]triazolo[4,3-a]pyridine-7-carboxamide]
22 | 100 to 1000 | 100 to 1000 | Cc1nnc2ccc3c(cc(C(=O)NC(C)C)n3Cc3ccccc3)n12 [Example 84, 6-benzyl-N-isopropyl-1-methyl-6H-pyrrolo[2,3-e][1,2,4]triazolo[4,3-a]pyridine-7-carboxamide]
23 | ≤ 100 | ≤ 100 | Cc1nnc2ccc3c(cc(C(=O)NC4CCC4)n3Cc3ccccc3)n12 [Example 85, 6-benzyl-N-cyclobutyl-1-methyl-6H-pyrrolo[2,3-e][1,2,4]triazolo[4,3-a]pyridine-7-carboxamide]
24 | 100 to 1000 | 100 to 1000 | Cc1nnc2ccc3c(cc(C(=O)N[C@H](C)C(F)(F)F)n3Cc3ccccc3)n12 [Example 86, 6-benzyl-1-methyl-N-[(1R)-2,2,2-trifluoro-1-methylethyl]-6H-pyrrolo[2,3-e][1,2,4]triazolo[4,3-a]pyridine-7-carboxamide]
25 | 100 to 1000 | ≤ 100 | Cc1nnc2ccc3c(cc(-c4ccn(CCN(C)C)n4)n3Cc3ccccc3)n12 [Example 89, 2-[3-(6-benzyl-1-methyl-6H-pyrrolo[2,3-e][1,2,4]triazolo[4,3-a]pyridin-7-yl)-1H-pyrazol-1-yl]-N,N-dimethylethanamine]
26 | ≤ 100 | ≤ 100 | Cc1nnc2ccc3c(cc(-c4ccn(C5(CC#N)CNC5)n4)n3Cc3ccccc3)n12 [Example 90, {3-[3-(6-benzyl-1-methyl-6H-pyrrolo[2,3-e][1,2,4]triazolo[4,3-a]pyridin-7-yl)-1H-pyrazol-1-yl]azetidin-3-yl}acetonitrile]
27 | ≤ 100 | ≤ 100 | CC(=O)N1CC(CC#N)(n2ccc(-c3cc4c(ccc5nnc(C)n54)n3Cc3ccccc3)n2)C1 [Example 91, {1-acetyl-3-[3-(6-benzyl-1-methyl-6H-pyrrolo[2,3-e][1,2,4]triazolo[4,3-a]pyridin-7-yl)-1H-pyrazol-1-yl]azetidin-3-yl}acetonitrile]
28 | ≤ 100 | ≤ 100 | Cc1nnc2ccc3c(cc(-c4ccn(C5(CC#N)CN(S(C)(=O)=O)C5)n4)n3Cc3ccccc3)n12 [Example 92, [3-[3-(6-benzyl-1-methyl-6H-pyrrolo[2,3-e][1,2,4]triazolo[4,3-a]pyridin-7-yl)-1H-pyrazol-1-yl]-1-(methylsulfonyl)azetidin-3-yl]acetonitrile]
29 | ≤ 100 | ≤ 100 | Cc1nnc2ccc3c(cc(-c4ccn(C5(CC#N)CN(C)C5)n4)n3Cc3ccccc3)n12 [Example 93, {3-[3-(6-benzyl-1-methyl-6H-pyrrolo[2,3-e][1,2,4]triazolo[4,3-a]pyridin-7-yl)-1H-pyrazol-1-yl]-1-methylazetidin-3-yl}acetonitrile]
30 | 100 to 1000 | 100 to 1000 | Cc1nnc2ccc3c(cc(C(=O)N(C)C)n3Cc3ccccc3)n12 [Example 94, 6-benzyl-N,N,1-trimethyl-6H-pyrrolo[2,3-e][1,2,4]triazolo[4,3-a]pyridine-7-carboxamide]
31 | ≤ 100 | ≤ 100 | Cc1nnc2ccc3c(cc(-c4ccn(CCC(=O)N(C)C)n4)n3Cc3ccccc3)n12 [Example 95, 3-[3-(6-benzyl-1-methyl-6H-pyrrolo[2,3-e][1,2,4]triazolo[4,3-a]pyridin-7-yl)-1H-pyrazol-1-yl]-N,N-dimethylpropanamide]
32 | ≤ 100 | ≤ 100 | CCNC(=O)CCn1ccc(-c2cc3c(ccc4nnc(C)n43)n2Cc2ccccc2)n1 [Example 96, 3-[3-(6-benzyl-1-methyl-6H-pyrrolo[2,3-e][1,2,4]triazolo[4,3-a]pyridin-7-yl)-1H-pyrazol-1-yl]-N-ethylpropanamide]
33 | ≤ 100 | ≤ 100 | Cc1nnc2ccc3c(cc(-c4ccn(CCC(N)=O)n4)n3Cc3ccccc3)n12 [Example 98, 3-[3-(6-benzyl-1-methyl-6H-pyrrolo[2,3-e][1,2,4]triazolo[4,3-a]pyridin-7-yl)-1H-pyrazol-1-yl]propanamide]
